Results: paper PMC8445441, “Elucidating the mechanism by which synthetic helper peptides sensitize Pseudomonas aeruginosa to multiple antibiotics” (PLoS Pathogens, 2021)

Assays:
PAO1 in human blood = test: Antimicrobial activity in blood (ex vivo bacteremia model); type: cell-based, Pseudomonas aeruginosa; settings: for duration of control of the infection in blood: human blood infected with PAO1, in the presence of 4 μM D-11; for antibacterial effect in blood (in words): human blood, 5×10^7 CFU/mL PAO1, antibiotic combined with D-11 (4 μM), 4 hours
Protocol: Human blood of healthy individuals was obtained from Sanquin (certified Dutch organization responsible for meeting the need in healthcare for blood and blood products, https://www.sanquin.nl/) and was infected with 5×10^7 CFU/mL of PAO1. The blood was distributed at 0.5 mL in 2 mL Eppendorf tubes and treated with the antibiotics and peptides at the indicated concentrations at 37 °C for 4 hours. The samples were decimal serially diluted in PBS. Drops of 10 μL of each dilution on LB agar to track the development of infection. The experiment was performed in triplicate.

P. aeruginosa PAO1 = test: Cutaneous mouse abscess infection model; type: in vivo; settings: BALB/c mice, PAO1 2×10^7 CFU; single dose; azithromycin 7.5, chloramphenicol 8, doxycycline 2 mg/kg, each with D-11 10 mg/kg; 20 h post infection
Protocol: The mouse cutaneous abscess infection model was performed as previously described with minor modifications. 8-week-old specific-pathogen-free female BALB/c mice were used in the experiment. Before infection, 80 μL of 7.5% chloral hydrate were injected intraperitoneally to anaesthetize the mice. PAO1 was grown to an OD600 of 1.0. The bacteria were collected by centrifugation and washed twice with saline. Then the bacteria were resuspended in saline at a concentration of 4 × 10^8 CFU/ml. 50 μL of the bacterial suspension were injected into the right side of the dorsum of the mouse, resulting in 2 × 10^7 CFU per mouse. 30 minutes after the infection, 50 μL saline alone or containing indicated concentration of antibiotic or 10 mg/kg D-11, or a combination of antibiotic and 10 mg/kg D-11 was injected into the infected area. 20 hours post infection, the skin abscess was excised and subjected to homogenization in saline. The live bacteria numbers were determined by plating.

Structure (SMILES) | duration of control of the infection in blood (PAO1 in human blood) | reductions of CFU in the abscess compared to each individual antibiotic (P. aeruginosa PAO1) | antibacterial effect in blood (in words) (PAO1 in human blood)
CC[C@H]1OC(=O)[C@H](C)[C@@H](O[C@H]2C[C@@](C)(OC)[C@@H](O)[C@H](C)O2)[C@H](C)[C@@H](O[C@@H]2O[C@H](C)C[C@H](N(C)C)[C@H]2O)[C@](C)(O)C[C@@H](C)CN(C)[C@H](C)[C@@H](O)[C@]1(C)O [Azithromycin] | more than 24 hours | 2–3 log10 | –
O=C(N[C@H](CO)[C@H](O)c1ccc([N+](=O)[O-])cc1)C(Cl)Cl [Chloramphenicol] | more than 24 hours | 2–3 log10 | best antibacterial effects
CC[C@H]1OC(=O)[C@H](C)[C@@H](O[C@H]2C[C@@](C)(OC)[C@@H](O)[C@H](C)O2)[C@H](C)[C@@H](O[C@@H]2O[C@H](C)C[C@H](N(C)C)[C@H]2O)[C@](C)(OC)C[C@@H](C)C(=O)[C@H](C)[C@@H](O)[C@]1(C)O [Clarithromycin] | more than 24 hours | – | –
CO[C@H]1[C@H](OC(=O)c2ccc(C)[nH]2)[C@H](O)[C@@H](Oc2ccc3c(O)c(NC(=O)c4c[nH]c(C(=O)Nc5c(O)c6ccc(O[C@H]7OC(C)(C)[C@@H](OC)[C@H](OC(=O)c8ccc(C)[nH]8)[C@@H]7O)c(C)c6oc5=O)c4C)c(=O)oc3c2C)OC1(C)C [Coumermycin A1] | – | – | relative week antibacterial effects
C[C@H]1c2cccc(O)c2C(=O)C2=C(O)[C@]3(O)C(=O)C(C(N)=O)=C(O)[C@@H](N(C)C)[C@@H]3[C@@H](O)[C@@H]21 [Doxycycline] | more than 24 hours | 2–3 log10 | best antibacterial effects
CO[C@@H]1[C@@H](OC(N)=O)[C@@H](O)[C@H](Oc2ccc3c(O)c(NC(=O)c4ccc(O)c(CC=C(C)C)c4)c(=O)oc3c2C)OC1(C)C [Novobiocin] | – | – | relative week antibacterial effects
CO[C@H]1/C=C/O[C@@]2(C)Oc3c(C)c(O)c4c(O)c(c(/C=N/N5CCN(C)CC5)c(O)c4c3C2=O)NC(=O)/C(C)=C\C=C\[C@H](C)[C@H](O)[C@@H](C)[C@@H](O)[C@@H](C)[C@H](OC(C)=O)[C@@H]1C [Rifampicin] | – | – | best antibacterial effects
